Experimental findings from patent publication US20240116923A1, “USE OF INDOLE, 6- AND 7-AZAINDOLE DERIVATIVES AS INHIBITORS OF FERROPTOSIS REGULATED CELL DEATH” (Seabelife, priority 2021, published 2024) are described below.

Read-outs that look alike come from different tables or passages of the source.

As usually defined, the EC50 is the concentration that produces a half-maximal response.

For one assay, the system named is Rat dopaminergic neurons. The experiment in a line: Protective effect after 6-OHDA injury on rat primary dopaminergic neurons survival (TH staining). In kind it is cell-based. Particulars: for cellular death of dopaminergic neurons after 6-OHDA injury: 1 h before and during 2 days of 6-OHDA 20 μM (alone 48%), p<0.001; for rescue of dopaminergic neurons from cell death after 6-OHDA injury: at every concentration tested of 10 μM, 1 μM and 0.1 μM. How it is done:
As explained in Ding et al., J Neurochem., 2004, (89), administration of 6-Hydroxydopamine (6-OHDA), a neurotoxin, has been widely used to cause the selective degeneration of dopamine (DA) neurons in in vitro and in vivo models. These models are used as Parkinson's disease models, which is characterized by the progressive loss of DA neurons of the substantia nigra.
Rat dopaminergic neurons were cultured as described by Schinelli et al., J Neurochem., 1988, 50(6). The cells were seeded at a density of 40 000 cells/well in 96 well-plates (precoated with poly-D-lysine; Greiner, Ref: 655940, Batch: E20093UL) and were cultured at 37° C. in a humidified air (95%)/CO2 (5%) atmosphere. Half of the medium was changed every 2 days with fresh medium. In these conditions, after 5 days of culture, astrocytes are present in the culture and release growth factor allowing neurons differentiation. In this condition, 2 to 5% of neurons are dopaminergic neurons.
6-OHDA (Sigma, Ref: 162957, Batch MKCK5243) was reconstituted in define culture medium at 40 μM (stock solution). The control medium was prepared in the same conditions. After 7 days of culture, primary mesencephalic neurons were pre-treated for 1 hour with test compounds or reference compound (BDNF, 50 ng/mL) and then intoxicated with 6-OHDA at a final concentration of 20 μM for 2 days incubation in order to induce a neuronal cell death of about 50%+/−5%.
After 2 days of intoxication in presence or absence of test compounds, cells were fixed by a solution of 4% paraformaldehyde (Sigma, ref 6148, Batch: SZBE2390V) for 20 min at room temperature, the control conditions were fixed as well following the same procedure. The cells were then permeabilized and nonspecific sites were blocked with a solution of phosphate buffered saline (PBS; PanBiotech; ref: P04-36500, Batch: 7701020) containing 0.1% of saponin (Sigma; ref: S7900, Batch: BCBL8667V) and 1% FCS for 15 min at room temperature. Cells were incubated with a mouse monoclonal anti-Tyrosine Hydroxylase (TH, 1/10 000, Sigma; ref: T1299, Batch: 014M4835) antibody in a solution of PBS overnight at 4° C. Antibody against TH stained dopaminergic neurons. […] Nuclei of cells were labelled by a fluorescent marker (Hoechst, Sigma; ref: B1155, Batch: 046M4048V) in the same solution. For each condition, 20 pictures per well were taken using InCell Analyzer™ 2200 (GE Healthcare) with 20× magnification. Images of each culture well were taken in same condition. Analysis of cell bodies of TH positive neurons was performed using Developer software (GE healthcare). A total of 6 data per experimental condition were provided.

For assay [1], the system named is human neuroblastoma cell line SH-SY5Y. Briefly: Neurotoxicity assay, SH-SY5Y cells + erastin or RSL3, MTS cell viability. The class given is cell-based. Particulars: Homo sapiens. As for the experimental part:
The excitotoxicity model used was the mouse hippocampal neuronal HT22 cells treated with glutamate [Dixon et al., Cell, 2012, 149(5), 1060-1072]. Ferroptosis and oxidative stress are both associated in this glutamate-induced cell death [Chu et al., Neural Regen. Res., 2020, 15(3), 528-536]. Phenotypic screening was also carried out with additional cell death inducers, erastin and RSL3 ((1S,3R)-Ras-selective lethal), in HT22 and SH-SY5Y (human neuroblastoma cells). Erastin and RSL3 are well described molecules, used as chemical tools for the study of ferroptosis regulation and neuronal pathologies [Lewerenz et al., Front. Neurosci., 2018, 12: 214; Reichert et al., Int. J. Mol. Sci., 2020, 21, 8765].
Mouse hippocampal neuronal cell line (HT22, ATCC) and human neuroblastoma cell line (SH-SY5Y, ATCC) were grown in Dulbecco's Modified Eagle Medium (DMEM, Gibco) supplemented with 10% fetal bovine serum (FBS, Gibco) at 37° C. under 5% CO2 atmosphere. Neurotoxicity was induced by erastin or RSL3 and excitotoxicity was induced by glutamate. Cells were seeded in 96-well plates at 5,000 and 10,000 cells/well for HT22 and SH-SY5Y cell lines, respectively. Cells were treated with 0.5-1 μM Erastin (HT22 cells) or 10 μM Erastin (SH-SY5Y cells) or 5-10 mM glutamate (HT22 cells) or 0.5 μM RSL3 (HT22 cells) or 5 μM RSL3 (SH-SY5Y cells) for 24 h in presence of increasing concentrations of inhibitors. Cells treated with DMSO only were used as controls. Cell viability was assessed by MTS assay (CellTiter 96 AQueous One Solution Cell Proliferation assay, Promega).
In FIGS. 1, 2A and 2B, an inhibitor was added to HT22 (FIG. 1: compound 6) or SH-SY5Y (FIG. 2A: compound 6; FIG. 2B: compound 25) cells in the presence or not of cell death inducers (erastin, glutamate or RSL3). […] EC50 values for compounds 1-28 were calculated from dose-response curves using Graphpad Prism software.

Where [2] appears, read: 10 μM (first value of 'respectively').

On to `Oc1ccc(-c2cc3cccnc3[nH]2)cc1` [Compound 7, 4-(1H-pyrrolo[2,3-b]pyridin-2-yl)phenol], for which the “cellular death of dopaminergic neurons after 6-OHDA injury” value in the assay on Rat dopaminergic neurons (1 μM (second value of 'respectively')) was 24%; in the assay on Rat dopaminergic neurons (setting [2]) it was 16%. Also, the “rescue of dopaminergic neurons from cell death after 6-OHDA injury” value in the assay on Rat dopaminergic neurons is “partially and significantly rescue”. For the same molecule, the EC50 was 1360 nM in assay [1] (SH-SY5Y cells, 5 μM RSL3, 24 h, MTS, read-out: EC50 SH-SY5Y RSL3) and 12400 nM in assay [1] (SH-SY5Y cells, 10 μM Erastin, 24 h, MTS, read-out: EC50 SH-SY5Y Erastin).

With `Oc1ccc(-c2cc3ccccc3[nH]2)cc1` [Compound 1, 4-(1H-indol-2-yl)phenol], the “cellular death of dopaminergic neurons after 6-OHDA injury” value in the assay with Rat dopaminergic neurons (setting [2]) came to 25%. Besides, the “rescue of dopaminergic neurons from cell death after 6-OHDA injury” value in the assay with Rat dopaminergic neurons was “partially and significantly rescue”. Also, the EC50 in assay [1] (SH-SY5Y, 24 h, read-out: EC50 SH-SY5Y Erastin) was 1060 nM.
